Test results reported in ChEMBL document CHEMBL1201862, “PubChem BioAssay data set” (2004).
Active and inactive are the calls of the source.

Experiments:
MDCK = test: antiviral activity against H1N1 influenza, dose response, cell-based, strain KY136 (AID 540257); type: functional; conditions: Canis lupus familiaris
[1] = molecular target: T1, High affinity choline transporter 1 (Homo sapiens, UniProt Q9GZV3); test: human choline transporter blockers, potency – cell-based, 5-point CRC, membrane potential dye, dose response (AID 504840); type: functional
T1 sequence (Q9GZV3 whole entry): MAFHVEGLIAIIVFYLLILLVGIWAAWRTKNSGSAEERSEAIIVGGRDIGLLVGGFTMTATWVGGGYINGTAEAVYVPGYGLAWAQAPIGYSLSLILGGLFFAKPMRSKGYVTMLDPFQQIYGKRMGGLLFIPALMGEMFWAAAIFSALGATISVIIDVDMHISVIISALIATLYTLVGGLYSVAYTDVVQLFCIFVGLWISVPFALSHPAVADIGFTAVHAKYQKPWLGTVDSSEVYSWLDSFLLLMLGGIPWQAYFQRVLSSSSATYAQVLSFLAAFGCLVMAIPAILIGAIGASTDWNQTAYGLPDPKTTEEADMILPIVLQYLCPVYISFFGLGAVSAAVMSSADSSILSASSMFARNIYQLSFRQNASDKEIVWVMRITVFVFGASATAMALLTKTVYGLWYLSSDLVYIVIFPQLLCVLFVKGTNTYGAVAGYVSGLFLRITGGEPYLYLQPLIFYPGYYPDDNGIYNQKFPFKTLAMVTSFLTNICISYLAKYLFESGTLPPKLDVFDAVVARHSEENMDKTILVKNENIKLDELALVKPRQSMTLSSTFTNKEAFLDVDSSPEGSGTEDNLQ

Hexokinase HKDC1 [2] = molecular target: T2, Hexokinase HKDC1 (Homo sapiens, UniProt Q2TB90); test: SAR analysis of small molecule inhibitors of hexokinase domain containing I (HKDC1). [Related pubchem assays (depositor defined):AID493160, AID493190]; type: functional
T2 sequence (Q2TB90 whole entry): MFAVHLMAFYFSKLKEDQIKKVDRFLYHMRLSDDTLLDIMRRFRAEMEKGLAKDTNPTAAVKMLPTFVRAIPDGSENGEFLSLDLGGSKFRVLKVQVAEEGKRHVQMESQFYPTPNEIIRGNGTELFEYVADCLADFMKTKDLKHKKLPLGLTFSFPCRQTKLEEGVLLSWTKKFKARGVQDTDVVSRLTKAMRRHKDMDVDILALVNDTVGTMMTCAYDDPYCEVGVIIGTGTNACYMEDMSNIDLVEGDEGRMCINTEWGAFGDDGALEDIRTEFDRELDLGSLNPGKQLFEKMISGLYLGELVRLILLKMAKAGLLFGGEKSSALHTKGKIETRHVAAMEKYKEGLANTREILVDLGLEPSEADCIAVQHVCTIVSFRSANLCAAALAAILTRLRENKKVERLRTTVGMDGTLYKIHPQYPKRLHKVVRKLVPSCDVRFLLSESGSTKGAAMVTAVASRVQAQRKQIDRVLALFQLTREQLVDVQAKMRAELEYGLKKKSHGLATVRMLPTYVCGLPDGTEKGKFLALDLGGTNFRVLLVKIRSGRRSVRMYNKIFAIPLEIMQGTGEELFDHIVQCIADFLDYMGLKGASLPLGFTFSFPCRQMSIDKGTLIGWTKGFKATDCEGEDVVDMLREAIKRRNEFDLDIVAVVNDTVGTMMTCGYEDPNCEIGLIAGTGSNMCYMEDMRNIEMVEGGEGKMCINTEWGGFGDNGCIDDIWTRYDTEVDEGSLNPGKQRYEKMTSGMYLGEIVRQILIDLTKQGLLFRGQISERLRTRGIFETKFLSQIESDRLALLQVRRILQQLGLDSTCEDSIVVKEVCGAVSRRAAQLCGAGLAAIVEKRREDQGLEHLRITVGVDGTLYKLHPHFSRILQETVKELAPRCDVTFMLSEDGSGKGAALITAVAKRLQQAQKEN

[3] = molecular target: FAD-linked sulfhydryl oxidase ALR (Homo sapiens, UniProt P55789); test: ALR-catalysed DTT oxidation blockers – biochemical, H2O2 detection, luminescence, cherry-pick, dose response (AID 493248)
Chain of FAD-linked sulfhydryl oxidase ALR (P55789 whole entry, the tested form may be a part): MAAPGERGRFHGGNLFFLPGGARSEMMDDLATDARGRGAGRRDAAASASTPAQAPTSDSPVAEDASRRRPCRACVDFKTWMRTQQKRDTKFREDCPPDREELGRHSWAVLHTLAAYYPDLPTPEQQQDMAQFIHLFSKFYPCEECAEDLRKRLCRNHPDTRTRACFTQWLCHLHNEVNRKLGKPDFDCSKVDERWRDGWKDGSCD

Hexokinase-1 [4] = molecular target: T3, Hexokinase-1 (Homo sapiens, UniProt P19367); test: SAR analysis of small molecule inhibitors of hexokinase domain containing I (HKDC1) in the hexokinase 1 selectivity assay. [Related pubchem assays (depositor defined):AID493160, AID493190]; type: functional
T3 sequence (P19367 whole entry): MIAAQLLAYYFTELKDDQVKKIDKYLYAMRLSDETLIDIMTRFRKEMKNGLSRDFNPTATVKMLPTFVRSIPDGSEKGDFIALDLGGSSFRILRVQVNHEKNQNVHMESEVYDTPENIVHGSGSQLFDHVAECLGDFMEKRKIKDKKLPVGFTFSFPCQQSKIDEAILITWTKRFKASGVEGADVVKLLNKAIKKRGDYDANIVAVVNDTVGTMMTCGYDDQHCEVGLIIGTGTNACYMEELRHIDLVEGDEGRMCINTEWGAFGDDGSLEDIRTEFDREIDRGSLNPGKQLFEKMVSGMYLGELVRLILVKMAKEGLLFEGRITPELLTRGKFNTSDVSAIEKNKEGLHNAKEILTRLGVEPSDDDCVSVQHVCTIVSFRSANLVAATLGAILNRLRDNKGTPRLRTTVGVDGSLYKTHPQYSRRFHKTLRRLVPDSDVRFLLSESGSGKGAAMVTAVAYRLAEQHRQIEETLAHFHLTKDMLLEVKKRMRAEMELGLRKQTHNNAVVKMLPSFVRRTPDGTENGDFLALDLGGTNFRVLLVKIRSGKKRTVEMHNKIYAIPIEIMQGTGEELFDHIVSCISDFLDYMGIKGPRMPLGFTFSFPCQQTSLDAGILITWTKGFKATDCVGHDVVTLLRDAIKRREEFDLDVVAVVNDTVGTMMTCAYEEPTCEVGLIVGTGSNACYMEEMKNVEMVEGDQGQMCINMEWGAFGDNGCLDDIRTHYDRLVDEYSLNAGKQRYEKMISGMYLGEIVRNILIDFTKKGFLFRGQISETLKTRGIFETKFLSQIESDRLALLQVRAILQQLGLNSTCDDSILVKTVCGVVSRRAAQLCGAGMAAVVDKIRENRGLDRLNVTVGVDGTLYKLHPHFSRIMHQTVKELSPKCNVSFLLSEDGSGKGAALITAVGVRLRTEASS

[5] = molecular target: Likely tRNA 2'-phosphotransferase (Candida albicans (strain SC5314 / ATCC MYA-2876) (Yeast), UniProt Q5A7N4); test: inhibition of Candida TPT1 enzyme activity – biochemical, fluorescence polarization, dose response (AID 2160)
Chain of Likely tRNA 2'-phosphotransferase (Q5A7N4 whole entry): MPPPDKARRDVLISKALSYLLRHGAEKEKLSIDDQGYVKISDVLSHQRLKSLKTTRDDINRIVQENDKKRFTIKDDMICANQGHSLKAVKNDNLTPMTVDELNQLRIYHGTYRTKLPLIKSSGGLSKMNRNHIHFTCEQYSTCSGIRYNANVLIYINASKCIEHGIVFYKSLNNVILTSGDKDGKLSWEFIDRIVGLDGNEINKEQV

[6] = molecular target: Guanyl-specific ribonuclease T1 (Aspergillus oryzae (strain ATCC 42149 / RIB 40), UniProt P00651); test: inhibition of ribonuclease T1 activity – biochemical, fluorescence polarization, 1536-well, counter-screen for TPT1 inhibitor project, dose response (AID 2167)
Chain of Guanyl-specific ribonuclease T1 (P00651 whole entry): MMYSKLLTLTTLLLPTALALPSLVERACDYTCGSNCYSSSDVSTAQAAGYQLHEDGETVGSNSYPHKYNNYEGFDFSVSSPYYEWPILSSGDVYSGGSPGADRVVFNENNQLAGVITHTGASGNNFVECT

[7] = molecular target: Beta-adrenergic receptor kinase 1 (Homo sapiens, UniProt P25098); test: aptamer displacement from bead-bound GRK2 – biochemical, cherry pick 1, bead flow cytometry, dose response (AID 504500)
Chain of Beta-adrenergic receptor kinase 1 (P25098 whole entry): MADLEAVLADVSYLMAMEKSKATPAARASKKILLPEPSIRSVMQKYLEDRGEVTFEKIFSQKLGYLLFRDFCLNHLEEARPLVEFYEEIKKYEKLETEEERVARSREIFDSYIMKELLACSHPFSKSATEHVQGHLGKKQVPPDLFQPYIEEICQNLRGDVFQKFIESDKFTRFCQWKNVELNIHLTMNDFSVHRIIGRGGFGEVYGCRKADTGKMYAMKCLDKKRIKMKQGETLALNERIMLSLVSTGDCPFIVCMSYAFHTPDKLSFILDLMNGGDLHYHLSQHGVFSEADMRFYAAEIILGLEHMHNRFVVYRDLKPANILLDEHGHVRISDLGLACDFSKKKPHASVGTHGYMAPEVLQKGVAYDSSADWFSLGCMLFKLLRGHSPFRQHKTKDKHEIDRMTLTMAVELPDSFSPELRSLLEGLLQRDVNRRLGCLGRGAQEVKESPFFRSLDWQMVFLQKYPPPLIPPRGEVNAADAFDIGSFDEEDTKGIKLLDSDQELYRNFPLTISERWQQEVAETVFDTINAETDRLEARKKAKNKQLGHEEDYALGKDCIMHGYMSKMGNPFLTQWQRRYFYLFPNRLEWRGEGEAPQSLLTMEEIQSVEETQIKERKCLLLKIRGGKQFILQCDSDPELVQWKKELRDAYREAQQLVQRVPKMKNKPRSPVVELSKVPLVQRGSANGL

[8] = molecular target: Beta-2 adrenergic receptor (Homo sapiens, UniProt P07550); test: ADRB2 activation measured by internalization – cell-based, FAP fluorogen, flow cytometry, cherry pick 1, dose response (AID 588763); type: functional
Chain of Beta-2 adrenergic receptor (P07550 whole entry): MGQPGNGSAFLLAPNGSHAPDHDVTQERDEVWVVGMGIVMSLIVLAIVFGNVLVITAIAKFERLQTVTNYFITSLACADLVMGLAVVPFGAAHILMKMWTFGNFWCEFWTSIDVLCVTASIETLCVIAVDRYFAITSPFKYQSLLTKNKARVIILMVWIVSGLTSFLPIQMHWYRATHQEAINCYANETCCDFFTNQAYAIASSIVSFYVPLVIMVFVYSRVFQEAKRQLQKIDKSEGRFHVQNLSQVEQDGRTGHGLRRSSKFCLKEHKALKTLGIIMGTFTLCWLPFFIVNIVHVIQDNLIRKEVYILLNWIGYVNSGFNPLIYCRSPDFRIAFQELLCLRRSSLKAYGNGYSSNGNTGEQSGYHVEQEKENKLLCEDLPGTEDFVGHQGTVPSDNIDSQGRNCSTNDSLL

Hexokinase HKDC1 [9] = molecular target: T2, Hexokinase HKDC1; test: analog inhibition of human HKDC1 activity – biochemical, set 2, SAR follow-up (AID 588355); type: functional
Hexokinase-1 [10] = molecular target: T3, Hexokinase-1; test: hexokinase 1 activity inhibitors, potency – biochemical, set 2, resazurin fluorescence coupled readout, selectivity assay for HKDC1 inhibitor project, SAR follow-up (AID 588356); type: functional

O=S(=O)(Cc1cc(Cl)nc(-c2cccnc2)n1)c1ccccc1
IC50 (MDCK): > 100 µM (active)
IC50 [1]: 10.5 µM (active)

N#Cc1ccc(CSc2nnc(NC(=O)c3ccc(O)nc3)s2)cc1
IC50 (Hexokinase HKDC1 [2]): > 80 µM (inactive)
AC50 [3]: 0.679 µM (active)
IC50 (Hexokinase-1 [4]): > 80 µM (inactive)

NC(=O)c1cc[n+](CC2=C(C(=O)O)N3C(=O)[C@@H](NC(=O)[C@@H](c4ccccc4)S(=O)(=O)[O-])[C@H]3SC2)cc1 [CEFSULODIN SODIUM]
IC50 [5]: 1.69 µM (active)
IC50 [6]: > 55.7 µM (not active)
EC50 [7]: 0.07 µM (active)

CCCCN(CCCC)c1nc(OC)nc(-n2nnc(C(C)=O)c2C)n1
EC50 [8]: 12.1 µM (inactive)

CNc1cc2n(c(=O)n1)CCc1cc(OC)c(OC)cc1-2
IC50 (Hexokinase HKDC1 [9]): > 80 µM (inactive)
IC50 (Hexokinase-1 [10]): > 80 µM (inactive)
